Laboratory results published in PubChem BioAssay (NCI).
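Test compounds were applied to cells in 96-well plates for 48 hours at 5 doses. GI50 is the concentration that inhibits growth by half. TGI is the concentration that stops growth completely.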

Tests used:
Experiment in all cases: growth of human tumour cells (NCI), 48 h
[1] = system: A498 renal
[2] = system: CAKI-1 renal
[3] = system: EKVX NSCLC
[4] = system: HCT-15 colon
[5] = system: HOP-62 NSCLC
[6] = system: OVCAR-4 ovarian
[7] = system: OVCAR-8 ovarian
[8] = system: SF-268 CNS
[9] = system: SK-OV-3 ovarian
[10] = system: HL-60(TB) leukemia

| Structure (SMILES) | TGI [1] | TGI [2] | TGI [3] | TGI [4] | TGI [5] | TGI [6] | TGI [7] | TGI [8] | TGI [9] | GI50 [1] | GI50 [2] | GI50 [3] | GI50 [4] | GI50 [10] | TGI [10] | GI50 [6] | GI50 [7] | GI50 [8] | GI50 [5] | GI50 [9] |
| --- | --- | --- | --- | --- | --- | --- | --- | --- | --- | --- | --- | --- | --- | --- | --- | --- | --- | --- | --- | --- |
| COc1nc2nccc-2c2occn12 | > 100 µM | > 100 µM | > 100 µM | > 100 µM | > 100 µM | > 100 µM | > 100 µM | > 100 µM | > 100 µM | – | – | – | – | – | – | – | – | – | – | – |
| COc1c(N2CCN(CN3C(=O)C(=Nc4ccc(S(=O)(=O)Nc5ncccn5)cc4)c4ccccc43)C(C)C2)c(F)cc2c(=O)c(C(=O)O)cn(C3CC3)c12 (stereo unspecified) | 14.2 µM | > 50 µM | > 50 µM | > 50 µM | – | > 50 µM | > 50 µM | > 50 µM | – | 0.833 µM | 48 µM | > 50 µM | 20.7 µM | > 50 µM | > 50 µM | > 50 µM | 21.4 µM | 44.1 µM | – | – |
| COc1cc(-c2cn(-c3ccc(Cl)cc3)c(C)c2C(=O)C(F)(F)F)cc(OC)c1OC | > 100 µM | > 100 µM | > 100 µM | > 100 µM | > 100 µM | > 100 µM | > 100 µM | > 100 µM | > 100 µM | 27.2 µM | > 100 µM | 51.3 µM | > 100 µM | – | – | 25.5 µM | > 100 µM | > 100 µM | > 100 µM | > 100 µM |
| CC(C)C1CC(O)O[C@@H]([C@@H](C)[C@H]2CC(=O)[C@@H]3[C@@H]4[C@@H](O)[C@H](O)[C@H]5[C@@H](O)[C@H](O)CC[C@]5(C)[C@H]4CC[C@]23C)C1 (stereo partly specified) | – | – | > 100 µM | > 100 µM | 61.4 µM | > 100 µM | > 100 µM | > 100 µM | > 100 µM | – | – | – | – | – | > 100 µM | – | – | – | – | – |
| COc1ccc(-c2cncn2-c2ccc(OC)cc2)cc1 | 34.3 µM | 44 µM | 27.1 µM | > 100 µM | 67.4 µM | > 100 µM | 52.8 µM | 66.2 µM | – | 16.3 µM | 20.6 µM | 4.08 µM | 19.6 µM | 9.06 µM | 26.2 µM | 28.9 µM | 21.1 µM | 21.7 µM | 22.8 µM | – |
| O=c1cc(-c2ccccc2)c2cc3c(=O)ccoc3cc2o1 | 78.7 µM | – | > 100 µM | > 100 µM | > 100 µM | > 100 µM | > 100 µM | > 100 µM | – | – | – | – | – | – | > 100 µM | – | – | – | – | – |
| COc1cc(CNc2ccc(C(C)C)cc2)cc(OC)c1OC | 67.7 µM | 45.1 µM | > 100 µM | 31.2 µM | 55.1 µM | 65.8 µM | 73.4 µM | > 100 µM | 46.2 µM | – | 16.9 µM | – | – | – | – | – | – | – | – | – |
| O=C1C(Cl)=C(Nc2cccc(O)c2)C(=O)N1c1cc(Cl)c(Cl)cc1Cl | 7.84 µM | 48.1 µM | 73.7 µM | 30.1 µM | 36.9 µM | 51.8 µM | 75.5 µM | 42.5 µM | 65.3 µM | – | 19.2 µM | 23 µM | 15.1 µM | – | – | 22.7 µM | 24 µM | 19.5 µM | 21.3 µM | 20.8 µM |
| COC(=O)CNC(=O)[C@@H](OC)[C@@H]1Cc2cc3cc(OC4CC(OC5CC(O)C(O)C(C)O5)C(O)C(C)O4)c(C)c(O)c3c(O)c2C(=O)[C@H]1OC1CC(OC2CC(OC3CC(C)(O)C(O)C(C)O3)C(O)C(C)O2)C(O)C(C)O1 (stereo partly specified) | – | 3.84 µM | > 50 µM | > 50 µM | > 50 µM | 5.4 µM | > 50 µM | > 50 µM | > 50 µM | – | 0.243 µM | 0.219 µM | 1.12 µM | 1.08 µM | 49.1 µM | 0.305 µM | 0.122 µM | 0.196 µM | 0.0908 µM | 0.444 µM |
| CCCCN(Cc1ccc(F)cc1)c1ccc(CO)c(Cl)c1 | 0.208 µM | 25.5 µM | – | 28.5 µM | 23.4 µM | 13.6 µM | 28.5 µM | 36 µM | 28.2 µM | 0.0543 µM | 11.7 µM | – | 13.4 µM | 14.1 µM | 34 µM | 2.54 µM | 14.2 µM | 19.3 µM | 11.1 µM | 15 µM |
| COc1cccc(C(=O)C2C(=O)N(C)CCc3ccccc32)c1OC (stereo unspecified) | > 100 µM | > 100 µM | – | > 100 µM | > 100 µM | > 100 µM | > 100 µM | – | > 100 µM | – | – | – | – | – | > 100 µM | – | – | – | – | – |
| C=C1C(=O)O[C@H]2[C@H]1CC/C(COC(=O)N1CCC[C@H]1C(=O)Nc1ccc(OC)c(C(N)=O)c1O)=C\CC[C@@]1(C)O[C@@H]21 | 22.6 µM | – | 32.9 µM | 17.2 µM | 30.2 µM | 12.9 µM | 26 µM | 24.7 µM | 65.6 µM | 9.17 µM | – | 4 µM | 4.34 µM | 1.59 µM | 4.83 µM | 2.88 µM | 4.73 µM | 5.63 µM | 12.8 µM | 20.9 µM |
| Cn1ccnc1C(=O)/C=C/c1ccc(CC(=O)Nc2ccccc2)cc1 | 14.5 µM | – | > 25 µM | 8.77 µM | 20.8 µM | > 25 µM | > 25 µM | 13.9 µM | > 25 µM | 6.08 µM | – | 6.28 µM | 1.25 µM | 1.57 µM | 9.35 µM | 4.12 µM | 6.44 µM | 3.72 µM | 3.75 µM | 9.3 µM |
| Cc1ccc(NC(=O)/C(=N\Nc2ccc([N+](=O)[O-])cc2[N+](=O)[O-])C2C(=O)NC(=O)NC2=O)cc1 | > 100 µM | > 100 µM | – | > 100 µM | > 100 µM | > 100 µM | > 100 µM | > 100 µM | > 100 µM | – | – | – | – | – | > 100 µM | – | – | – | – | – |
| Fc1ccc2[nH]c3c(NCCCN4CCOCC4)ncnc3c2c1 | > 100 µM | > 100 µM | – | > 100 µM | > 100 µM | > 100 µM | > 100 µM | > 100 µM | > 100 µM | 28.1 µM | 34.2 µM | – | 32.1 µM | 51.9 µM | > 100 µM | 65.8 µM | 66.8 µM | 88.2 µM | 42.8 µM | > 100 µM |
